{"source": "PubChem BioAssay AID2060494", "about": "(Molecular Pharmacology Branch, DTP, NCI, 2025);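 note: spheroids exposed to the agents for seven days before readout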;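 for viability, T/C: percent of vehicle control viability with DMSO wells as 100%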", "tested_on": "435261-313-R-J1-PDC complex spheroid viability", "experiment": "Anticancer human tumor 435261-313-R-J1-PDC patient-derived colon adenocarcinoma cell line growth inhibition [GQUAD]", "settings": "for IC50: curve of first compound; for viability, T/C: stronger effect = lower value", "outline": "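Tumor cells were grown as complex spheroids with HUVEC endothelial cells and mesenchymal stem cells as stroma. G-quadruplex stabilizers were combined with targeted agents over half-log dilutions from near the clinical Cmax, or from 10 microM.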", "data": [{"smiles": "C#Cc1c(F)ccc2cc(O)cc(-c3ncc4c(N5CC6CCC(C5)N6)nc(OCC56CCCN5CC(F)C6)nc4c3F)c12", "note": "(configuration not stated) + Cc1cnc(CNC(=O)c2c(=O)c3ccc(N4CCCN(C)CC4)nc3n3c2sc2ccccc23)cn1", "values": [{"measurement": "IC50", "setting": "second compound 0.0316 µM", "value": 1840, "unit": "nM"}, {"measurement": "IC50", "setting": "second compound 0.1 µM", "value": 341, "unit": "nM"}, {"measurement": "IC50", "setting": "second compound 0.316 µM", "value": 448, "unit": "nM"}, {"measurement": "IC50", "setting": "second compound 1 µM", "value": "< 31.6", "unit": "nM"}, {"measurement": "IC50", "setting": "second compound 3.16 µM", "value": "< 31.6", "unit": "nM"}, {"measurement": "IC50", "setting": "second compound 10 µM", "value": "< 31.6", "unit": "nM"}, {"measurement": "viability, T/C", "setting": "second compound 0.0316 µM, first compound 0.0316 µM", "value": 74.5, "unit": "%"}, {"measurement": "viability, T/C", "setting": "second compound 0.0316 µM, first compound 0.1 µM", "value": 61, "unit": "%"}, {"measurement": "viability, T/C", "setting": "second compound 0.0316 µM, first compound 0.316 µM", "value": 71.5, "unit": "%"}, {"measurement": "viability, T/C", "setting": "second compound 0.0316 µM, first compound 1 µM", "value": 50.5, "unit": "%"}, {"measurement": "viability, T/C", "setting": "second compound 0.0316 µM, first compound 3.16 µM", "value": 45.9, "unit": "%"}, {"measurement": "viability, T/C", "setting": "second compound 0.0316 µM, first compound 10 µM", "value": 34.7, "unit": "%"}, {"measurement": "viability, T/C", "setting": "second compound 0.1 µM, first compound 0.0316 µM", "value": 59.5, "unit": "%"}, {"measurement": "viability, T/C", "setting": "second compound 0.1 µM, first compound 0.1 µM", "value": 62.2, "unit": "%"}, {"measurement": "viability, T/C", "setting": "second compound 0.1 µM, first compound 0.316 µM", "value": 49.8, "unit": "%"}, {"measurement": "viability, T/C", "setting": "second compound 0.1 µM, first compound 1 µM", "value": 36.6, "unit": "%"}, {"measurement": "viability, T/C", "setting": "second compound 0.1 µM, first compound 3.16 µM", "value": 43.1, "unit": "%"}, {"measurement": "viability, T/C", "setting": "second compound 0.1 µM, first compound 10 µM", "value": 29.6, "unit": "%"}, {"measurement": "viability, T/C", "setting": "second compound 0.316 µM, first compound 0.0316 µM", "value": 53, "unit": "%"}, {"measurement": "viability, T/C", "setting": "second compound 0.316 µM, first compound 0.1 µM", "value": 59.6, "unit": "%"}, {"measurement": "viability, T/C", "setting": "second compound 0.316 µM, first compound 0.316 µM", "value": 55.4, "unit": "%"}, {"measurement": "viability, T/C", "setting": "second compound 0.316 µM, first compound 1 µM", "value": 37.8, "unit": "%"}, {"measurement": "viability, T/C", "setting": "second compound 0.316 µM, first compound 3.16 µM", "value": 34.8, "unit": "%"}, {"measurement": "viability, T/C", "setting": "second compound 0.316 µM, first compound 10 µM", "value": 30.5, "unit": "%"}, {"measurement": "viability, T/C", "setting": "second compound 1 µM, first compound 0.0316 µM", "value": 37.4, "unit": "%"}, {"measurement": "viability, T/C", "setting": "second compound 1 µM, first compound 0.1 µM", "value": 34.4, "unit": "%"}, {"measurement": "viability, T/C", "setting": "second compound 1 µM, first compound 0.316 µM", "value": 34.1, "unit": "%"}, {"measurement": "viability, T/C", "setting": "second compound 1 µM, first compound 1 µM", "value": 34.3, "unit": "%"}, {"measurement": "viability, T/C", "setting": "second compound 1 µM, first compound 3.16 µM", "value": 30, "unit": "%"}, {"measurement": "viability, T/C", "setting": "second compound 1 µM, first compound 10 µM", "value": 17.1, "unit": "%"}, {"measurement": "viability, T/C", "setting": "second compound 3.16 µM, first compound 0.0316 µM", "value": 0.16, "unit": "%"}, {"measurement": "viability, T/C", "setting": "second compound 3.16 µM, first compound 0.1 µM", "value": 6.4, "unit": "%"}, {"measurement": "viability, T/C", "setting": "second compound 3.16 µM, first compound 0.316 µM", "value": 0.17, "unit": "%"}, {"measurement": "viability, T/C", "setting": "second compound 3.16 µM, first compound 1 µM", "value": 6.39, "unit": "%"}, {"measurement": "viability, T/C", "setting": "second compound 3.16 µM, first compound 3.16 µM", "value": 0.17, "unit": "%"}, {"measurement": "viability, T/C", "setting": "second compound 3.16 µM, first compound 10 µM", "value": 0.15, "unit": "%"}, {"measurement": "viability, T/C", "setting": "second compound 10 µM, first compound 0.0316 µM", "value": 0.12, "unit": "%"}, {"measurement": "viability, T/C", "setting": "second compound 10 µM, first compound 0.1 µM", "value": 0.14, "unit": "%"}, {"measurement": "viability, T/C", "setting": "second compound 10 µM, first compound 0.316 µM", "value": 0.16, "unit": "%"}, {"measurement": "viability, T/C", "setting": "second compound 10 µM, first compound 1 µM", "value": 0.16, "unit": "%"}, {"measurement": "viability, T/C", "setting": "second compound 10 µM, first compound 3.16 µM", "value": 0.22, "unit": "%"}, {"measurement": "viability, T/C", "setting": "second compound 10 µM, first compound 10 µM", "value": 0.18, "unit": "%"}]}]}
